PMC7868322, “Rational Design of A Novel Small-Molecule HIV-1 Inactivator Targeting Both gp120 and gp41 of HIV-1” (Frontiers in Pharmacology, 2021)
Read-outs that look alike come from different tables or passages of the source.

Tests used:
[1] = target: T1, 6HB formation between N36 and C34 (Human immunodeficiency virus type 1 group M subtype B, UniProt P04578); assay: N-PAGE inhibition of six-helix bundle formation; assay type: biochemical, HIV-1; details: peptides 40 μM final
T1 construct: purchased NIH AIDS Reagent Program
Method: The sample was mixed with Tris-glycine native sample buffer and then loaded onto the 18% Tris-glycine gel. Gel electrophoresis was carried out with 125 V constant voltage at room temperature for 3 h.

[2] = system: T20-resistant virus V38A N42D; assay type: cell-based, HIV-1; details: means ± SD
[3] = system: T2635-resistant virus Q79E N126K; assay type: cell-based, HIV-1; details: inactivation of cell-free virions, means ± SD
T20-resistant virus V38A = assay type: cell-based, HIV-1; details: inactivation of cell-free virions, means ± SD
HIV-1 IIIB = assay: Inactivation of cell-free HIV-1 virions (PEG-6000 precipitation, p24 ELISA); assay type: cell-based; details: Human immunodeficiency virus 1, IIIB; cell-free virions, 1 h at 4°C, PEG-6000 precipitation; read-out: EC50, inactivation of HIV-1 IIIB
[4] = system: T2635-resistant virus K90E N126K; assay type: cell-based, HIV-1; details: means ± SD
[5] = system: T20-resistant virus V38E N42S; assay type: cell-based, HIV-1; details: means ± SD
[6] = system: T2635-resistant virus K90E; assay type: cell-based, HIV-1; details: inactivation of cell-free virions, means ± SD
[7] = system: T20-resistant virus V38E N42S; assay type: cell-based, HIV-1; details: inactivation of cell-free virions, means ± SD
WT (LAI) = assay: microbe, parasite or virus in culture; details: Human immunodeficiency virus 1
Method: The inactivation activities of the compounds, alone or in combination, against different cell-free HIV-1 virions were measured as previously described ([Qi et al., 2017]). Briefly, different concentrations of compound or PBS were incubated with 800 TCID50 live virus for 1 h at 4°C. Subsequently, PEG-6000 was added to a final concentration of 3% and incubated for another 1 h at 4°C. The virus was collected by centrifugation of the mixture at 13,000 rpm at 4°C for 30 min. The supernatant was discarded, and the virus was resuspended in 3% PEG-6000 containing 10 mg/mL BSA and centrifuged at 13,000 rpm at 4°C for 30 min. The above procedure was repeated twice to completely remove residual compounds. Finally, the virus particles were resuspended in 100 μL of medium and added to 100 μL of 3 × 10^4 MT-2 or CEMx 174 5.25 M7 cells. After 3-4 days of incubation at 37°C, 50 μL of supernatant per well were collected and mixed with the same volume of 5% Triton X-100. The p24 antigen was detected by ELISA.

[8] = system: T2635-resistant virus Q66R N113E; assay type: cell-based, HIV-1; details: inactivation of cell-free virions, means ± SD
HIV-1 IIIB gp120 = HIV-1 IIIB gp120 (Human immunodeficiency virus type 1 group M subtype B, UniProt P04578); assay: ELISA inhibition of gp120 CD4bs-targeting mAbs binding to gp120; set-up: polystyrene plates were coated with 50 µL of HIV-1 IIIB gp120
Method: Flow cytometry was used to detect compounds that competed with gp120 CD4bs-targeting mAbs for binding to gp120. In brief, 100 µL of FD016 at a concentration of 100 µM or PBS was first incubated with CHO-WT cells expressing HIV-1 HXB2 gp120 for 30 min at room temperature, and then gp120 CD4bs-targeting mAbs (5 μg/mL, 100 µL) and FITC-labeled goat anti-human secondary antibody were added successively. After three washes, the cells were analyzed with flow cytometry. ELISA was carried out to detect the activity of compounds that inhibit the binding of soluble CD4 (sCD4) or gp120 CD4bs-targeting mAbs to gp120 as previously described ([Si et al., 2004]; [Curreli et al., 2014]). Briefly, for sCD4 and gp120 binding, 50 µL of HIV-1 IIIB gp120 at 0.5 μg/mL was captured on polystyrene plate coated with sheep anti-gp120 antibody D7324 (Aalto Bio Reagents). sCD4 (ImmunoDiagnostics, Inc.) at 200 ng/mL was then added in the presence of an equal volume of different concentrations of compounds or PBS and incubated at 37°C for 1 h. Next, rabbit anti-sCD4 IgG (ImmunoDiagnostics, Inc.) at 250 ng/mL was added and incubated at 37°C for another 1 h, followed by goat anti-rabbit IgG-biotin (Invitrogen), streptavidin-horseradish peroxidase (Invitrogen). For gp120 CD4bs-targeting mAbs and gp120 binding, polystyrene plates were coated with 50 µL of HIV-1 IIIB gp120 (2 μg/mL in 0.1 mol/L sodium bicarbonate buffer (pH 8.6)) at 4°C overnight and then blocked with PBS containing 2% BSA at 37°C for 2 h. Next, gp120 CD4bs-targeting mAbs at 2 μg/mL were added in the presence of an equal volume of FD028 at different concentrations and incubated at 37°C for 1 h. Horseradish peroxidase (HRP)-labeled goat-anti-human IgG (Sigma-Aldrich) was added sequentially. After adding 3,3′,5,5′-tetramethylbenzidine chromogen substrate and sulfuric acid, the absorbance at 450 nm (A450) was recorded using a Microplate Reader (Tecan, Männedorf, Switzerland).

[9] = system: T20-resistant virus V38A N42T; assay type: cell-based, HIV-1; details: inactivation of cell-free virions, means ± SD
D36G (NL4-3 WT) = assay type: cell-based, HIV-1; details: inactivation of cell-free virions, T20-resistant panel D36G (NL4-3 WT); means ± SD
[10] = system: T2635-resistant virus Q79E N126K; assay type: cell-based, HIV-1; details: means ± SD
HIV-1 Bal = assay: Inactivation of cell-free HIV-1 virions (PEG-6000 precipitation, p24 ELISA); assay type: cell-based; details: Human immunodeficiency virus 1, BAL; cell-free virions, 1 h at 4°C, PEG-6000 precipitation; read-out: EC50, inactivation of HIV-1 Bal
92/UG/024 (D, X4) = assay: Inhibition of HIV-1 clinical virus infection; assay type: cell-based; details: Human immunodeficiency virus 1; HIV-1 clinical virus 92/UG/024 (D, X4); means ± SD
WT (NL4-3 D36G) = assay type: cell-based, HIV-1; details: T20-resistant virus panel, means ± SD
[11] = system: T2635-resistant virus H3C; assay type: cell-based, HIV-1; details: T2635-resistant virus H3C (A6V L33S Q66R N126K H132Q E136G); means ± SD
93/BR/020 (F, R5 and X4) = assay: Inhibition of HIV-1 clinical virus infection; assay type: cell-based; details: Human immunodeficiency virus 1; HIV-1 clinical virus 93/BR/020 (F, R5 and X4); means ± SD

`CC1(C)CC(NC(=O)C(=O)Nc2ccc(Cl)c(F)c2)CC(C)(C)N1C(=O)COc1ccc(CCN2C(=O)/C(=C/c3ccc(-c4ccc(Cl)c(C(=O)O)c4)o3)SC2=S)cc1` [FD028, (Z)-2-Chloro-5-(5-((3-(4-(2-(4-(2-((4-Chloro-3-Fluorophenyl)amino)-2-oxoacetamido)-2,2,6,6-Tetramethylpiperidin-1-yl)-2-oxoethoxy)phenethyl)-4-oxo-2-Thioxothiazolidin-5-ylidene)methyl)furan-2-yl)benzoic Acid] showed an IC50 [1] of 100000 to 200000 nM, an IC50 [2] of 480 ± 110 nM and an EC50 [3] of 120 ± 20 nM. It also gave an EC50 (T20-resistant virus V38A) of 780 ± 190 nM, an EC50 (HIV-1 IIIB) of 710 nM and an IC50 [4] of 460 ± 110 nM. It also gave an IC50 [5] of 240 ± 20 nM, an EC50 [6] of 550 ± 230 nM and an EC50 [7] of 490 ± 30 nM. The EC50 (WT (LAI)) was 40 ± 10 nM, the EC50 [8] was 360 ± 30 nM and the IC50 (HIV-1 IIIB gp120; ELISA, mAb 2G12, read-out: IC50, inhibition of 2G12 binding to gp120) was 1420 nM. It also gave an IC50 (HIV-1 IIIB gp120; ELISA, mAb 654-30D, read-out: IC50, inhibition of 654-30D binding to gp120) of 700 nM, an IC50 (HIV-1 IIIB gp120; ELISA, mAb B12, read-out: IC50, inhibition of B12 binding to gp120) of 460 nM and an IC50 (HIV-1 IIIB gp120; ELISA, mAb HJ16, read-out: IC50, inhibition of HJ16 binding to gp120) of 770 nM. For the same compound, the IC50 (HIV-1 IIIB gp120; ELISA, mAb N6, read-out: IC50, inhibition of N6 binding to gp120) was 1230 nM, the IC50 (HIV-1 IIIB gp120; ELISA, mAb VRC01, read-out: IC50, inhibition of VRC01 binding to gp120) was 420 nM and the IC50 (HIV-1 IIIB gp120; ELISA, range over the mAbs, read-out: IC50, inhibition of binding of gp120 to different gp120 CD4bs-targeting mAbs) was 420 to 1420 nM. For the same compound, the IC50 (HIV-1 IIIB gp120; IC50, inhibition of 3BNC117 binding to gp120, ELISA, mAb 3BNC117) was 520 nM, the EC50 [9] was 320 ± 110 nM and the EC50 (D36G (NL4-3 WT)) was 410 ± 20 nM. It also gave an IC50 [10] of 200 ± 70 nM, an EC50 (HIV-1 Bal) of 660 nM and an IC50 (92/UG/024 (D, X4)) of 1040 ± 160 nM. It also gave an IC50 (WT (NL4-3 D36G)) of 170 ± 60 nM, an IC50 [11] of 270 ± 60 nM and an IC50 (93/BR/020 (F, R5 and X4)) of 380 ± 30 nM.
